# Patent publication US6525041B1, “Manganese or iron complexes of nitrogen-containing macrocyclic ligands effective as catalysts for dismutating superoxide” (Pharmacia Corporation, priority 1995, dated 2003)
# Assay: Stopped-flow kinetic analysis of catalytic dismutation of superoxide
# Assay type: biochemical
# Settings: pH=8.1 and 21° C., 80 mM Hepes buffer, absorbance at 245 nm
# Text: Stopped-flow kinetic analysis is an accurate and direct method for quantitatively monitoring the decay rates of superoxide in water. The stopped-flow kinetic analysis is suitable for screening compounds for SOD activity and catalytic activity of the compounds or complexes of the present invention for dismutating superoxide, as shown by stopped-flow analysis, correlate to treating the above disease states and disorders. […]
# Water for buffer solutions was delivered from an in-house deionized water system to a Barnstead Nanopure Ultrapure Series 550 water system and then double distilled, first from alkaline potassium permanganate and then from a dilute EDTA solution. […] This system produces deoxygenated water that can be measured to have a conductivity of less than 2.0 nanomhos/cm^2.
# The stopped-flow spectrometer system was designed and manufactured by Kinetic Instruments Inc. (Ann Arbor, Mich.) and was interfaced to a MAC IICX personal computer. […] Since the published extinction coefficient of superoxide in H2O at 245 nm is ˜2250 M^−1 cm^−1 (1), an initial absorbance value of approximately 0.3-0.5 would be expected for a 2-cm path length cell, and this was observed experimentally. […]
structure (smiles),measurement,value
"OCCCC1NCCNCCNCCNCCNC1CCCO.[Cl][Mn][Cl] (stereo not drawn) [Example 1, [Manqanese(II)dichloro (trans-2,3-bis(3-hydroxypropyl)-1,4,7,10,13-pentaazacyclopentadecane)]]",catalytic rate constant for dismutation of superoxide (kcal),1.8e+07 M⁻¹ s⁻¹
